In series [1] the test system is DSS-induced colitis. The series is described as follows: DSS-induced colitis in mice. The note with it: oral; for improvement of DAI score or disease severity (in words): 1 mg/kg; for mice that developed moderate colitis / mice that developed severe colitis / mice that developed severe colitis with gross bleeding: day 5, n=10. Type of series: in vivo, C57BL/6 female mice. The procedure:
In vivo efficacy of MMT3-72 in treatment of DSS-induced colitis in mice: C57BL/6 female mice 6-8 weeks purchased from Charles River Laboratories and were randomly divided into different treatment groups. Acute colitis was induced by administering 3% DSS (MP Biomedicals, CA, USA) in distilled water continuously for 5 days and the control group received pure water (Snider, et al., Methods Mol Biol 2016, 1438, 245-254). […] Drugs were administered every other day orally by gavage in volume of 0.1 mL/10 g body weight. During the model establishment, body weight, stool consistency and gross blood in feces were monitored and recorded daily. After 5 days, mice were sacrificed and blood was collected. Serum was obtained by centrifugation and stored at −80° C. for further immune assay. Colon was excised and the length was measured.
To evaluate the efficacy of MMT3-72 in the treatment of UC in vivo, a colitis model was established in mice using dextran sodium sulfate (DSS). DSS in drinking water could trigger colitis in mice. The DSS-induced colitis model is widely used because of its relatively easy administration and high similarity with human UC. In this study, mice treated with 3% DSS water developed symptoms of colitis such as bloody stools and diarrhea on day 5. Disease activity index (DAI) was monitored for the severeness of disease in mice: Normal stool consistency with negative hemoccult: score 0; Soft stools with positive hemoccult: score 1; Very soft stools with traces of blood: score 2; Watery stools with visible rectal bleeding: score 3. […]. […].

Series [2] concerns HEL 92.1.7 cells. The experiment in a line: Anti-proliferative assay in HEL cells (CellTiter 96 Aqueous). Type of series: cell-based, Human. Particulars: 3 days. The procedure: (§1) Cell Culture and anti-proliferative assay. […] Cells were incubated at 37° C. in a humidified atmosphere of 5% CO2. Cells were seeded into 96-well culture plates at the density of approximately 8000 cells per well and treated with various concentrations of compounds for 3 days in final volumes of 200 μL. Upon end point, cells were treated using CellTiter 96 Aqueous Assay Reagents (Promega Corporation, Madison, USA) according to the provider's instruction. Briefly, MITS and PMS solution were thawed and mixed (20:1, v/v) before use and pipet appropriate amount of the mixed solution into each well of the 96 well assay plates. The plates were incubated for 1-4 hours at 37° C. in a humidified atmosphere of 5% CO2. The absorbance at 490 nm was recorded using CYTATION 5 imaging reader (BioTek, VT, USA). IC50 values were calculated using percentage of growth versus untreated control.

Series [3] has as its system SET-2 cells. The experiment in a line: Anti-proliferative assay in SET-2 cells (CellTiter 96 Aqueous). Type of series: cell-based, Human. Particulars: 3 days. Here is the method: as §1
Series [4] addresses JAK2 (Homo sapiens (Human), UniProt O60674). The series is described as follows: Kinase-Glo Max JAK2 kinase assay (BPS Bioscience kit). Format: biochemical. The note with it: purified enzyme, 0.01-10,000 nM. (Kinase-Glo reads ATP consumption through a luciferase reaction.)
Series [5] in a line: In-vivo metabolite identification in mouse plasma, colon and feces. Particulars: 6 h after oral 10 mg/kg MMT3-72. The procedure:
Activation of MMT73-72 and Metabolite identification: In-vivo metabolite identification was conducted using mouse plasma, colon and feces samples that collected at 6 h after oral administration of MMT3-72 (10 mg/kg), Liquid chromatography tandem mass spectrometry was employed to separate and identify the possible metabolites. The LC-MS/MS method consisted of a Shimadzu LC-20AD HPLC system (Kyoto, Japan). Chromatographic separation of MMT3-72 and its metabolites was achieved using a Waters XBridage reverse phase C18 column (15 cm×2.1 mm I.D., packed with […]). A high resolution AB Sciex X500R QTOF mass spectrometer (AB Sciex, Farmingham, USA) in the positive-ion Information Dependent Acquisition (IDA) mode was used for confirmation of accurate molecular weight. The mass range was recorded from m/z 100 to 1000 Da. The collision energy was set to 50 V for TOF MSMS. Data was collected with software SCIEX OS, and then processed with software Metabolite Pilot 2.0 (AB Sciex, Farmingham, USA).

Series [6] can be described thus: Pharmacokinetics in mice after oral MMT3-72 (LC-MS/MS of plasma, GI tissues, GI content). Format: in vivo, C57BL/6 female mice. Here is the method: LC-MS analysis of MMT3-72and MMT3-72-M2 in biological samples: MMT3-72 and MMT3-72-M2 concentrations in plasma (ng/mil) and tissues (ng/g) were determined by the LC-MS/MS method that was developed and validated for this study. The HPLC method was conducted on a Shimadzu LC-20AD HPLC system (Kyoto, Japan), and chromatographic separation was achieved using a Waters XBridage reverse phase C18 column (5 cm×2.1 mm I.D., packed with 3.5 μm). The flow rate of gradient elution was 0.4 ml/min with mobile phase A (0.1% formic acid in purified deionized water) and mobile phase B (0.1% formic acid in acetonitrile). An AB Sciex QTrap 4500 mass spectrometer (AB Sciex, Framingham, USA) in the positive-ion multiple reaction monitoring (MRM) mode was used for detection. Protonated molecular ions and the respective ion products were monitored at the transitions of m/z 811.3>737.4 for MMT3-72 and 472.3>416.0 for the MMT3-72-M2. Data was processed with software Analyst (version 1.6).
Pharmacokinetics in mice. Briefly, C57BL/6 female mice were orally dosed with 10 mg/kg MMT3-72. At 0.5, 2, 4, 12, 24 h, mice were sacrificed, and blood samples were collected by drawing directly from the heart Intestinal tissue samples were collected and homogenized in PBS to 10% homogenate. The contents of small and large intestine were collected and homogenized in PBS. Afterwards, concentrations of MMT3-72, MMT3-72-M2,5-ASA in the plasma, intestinal tissues, and intestinal content were determined by liquid chromatography-tandem mass spectrometry (LC-MS/MS) analysis using method described above.

Series [7] deals with JAK1 (Homo sapiens (Human), UniProt P23458). The experiment in a line: Kinase-Glo Max JAK1 kinase assay (BPS Bioscience kit). Format: biochemical. The note with it: purified enzyme, 0.01-10,000 nM. Here is the method:
(§2) In vitro activity to inhibit JAK enzymes: JAK1, JAK2, JAK3, TYK2 assay kits were obtained from BPS Bioscience (San Diego, CA, USA). The assays were conducted according to manufacturer's protocols in 96-well microplates. Briefly, master mixtures (25 μL per well) were prepared for JAK1 and TYK2 assays (6 μL 5× kinase assay buffer+1 μL ATP (500 μM)+5 μL×10 IRS1-tide+13 μL distilled water) or for JAK2 and JAK3 assays (6 μl 5× kinase assay buffer+1 μl ATP (500 μM)+1 μl PTK substrate Poly(Glu:Tyr 4:1) (10 mg/mL)+17 μL distilled water), respectively. […] The reaction mixtures were incubated at 30° C. for 40 minutes. Finally, 50 μL of Kinase-Glo Max reagent (Promega, Madison, WL USA) was added to each well and the reactions were performed in darkness for 15 minutes at room temperature. The luminescence of the reaction mixture was read on a Synergy 2 microplate reader (Biotek).

Series [8] addresses JAK3 (Homo sapiens (Human), UniProt P52333). The experiment in a line: Kinase-Glo Max JAK3 kinase assay (BPS Bioscience kit). Particulars: purified enzyme, 0.01-10,000 nM. Format: biochemical.
Series [9] has as its target TYK2 (Homo sapiens (Human), UniProt P29597). The experiment in a line: Kinase-Glo Max TYK2 kinase assay (BPS Bioscience kit). Type of series: biochemical. The note with it: purified enzyme, 0.01-10,000 nM. Here is the method: as §2
The subject of series [10] is DSS-induced colitis. The series is described as follows: H&E staining of colon tissues in DSS-induced colitis model. Type of series: in vivo, mice. The note with it: 5, 10 mg/kg. The procedure:
H&E Staining of Colon tissues: After dissecting and transecting the colon, a feeding needle and 5 ml syringe were used to intubate and flush the colon with ice-cold PBS until the stool was flushed out. Scissors were used to incise longitudinally from distal to proximal end of the colon and the colon tissue could then be expanded as a flat sheet. The edge of the distal colon was grasped using a pair of forceps and the colon tissue was rotated into a swiss roll. The roll was firmly grasped and transected using a 27 G ½ needle. […] The Swiss roll was then paraffin-embedded, sectioned, mounted, and stained with H&E to determine the extent of damage to the colon from the distal (inside end) to the proximal (outside end).

The conditions of series [11]: following a single oral dose; cited from earlier work.

This is an account of results in patent US20250257069A1, “JAK INHIBITOR ANALOGS, FORMULATIONS, AND USES THEREOF” (THE REGENTS OF THE UNIVERSITY OF MICHIGAN, priority 2022, published 2025).

pIC50: −log10 of the molar value. Where two headings read alike, the source gives them in different places. A value given as a limit tells only on which side of the number the result lay.

Sequence of JAK1 (P23458 whole entry): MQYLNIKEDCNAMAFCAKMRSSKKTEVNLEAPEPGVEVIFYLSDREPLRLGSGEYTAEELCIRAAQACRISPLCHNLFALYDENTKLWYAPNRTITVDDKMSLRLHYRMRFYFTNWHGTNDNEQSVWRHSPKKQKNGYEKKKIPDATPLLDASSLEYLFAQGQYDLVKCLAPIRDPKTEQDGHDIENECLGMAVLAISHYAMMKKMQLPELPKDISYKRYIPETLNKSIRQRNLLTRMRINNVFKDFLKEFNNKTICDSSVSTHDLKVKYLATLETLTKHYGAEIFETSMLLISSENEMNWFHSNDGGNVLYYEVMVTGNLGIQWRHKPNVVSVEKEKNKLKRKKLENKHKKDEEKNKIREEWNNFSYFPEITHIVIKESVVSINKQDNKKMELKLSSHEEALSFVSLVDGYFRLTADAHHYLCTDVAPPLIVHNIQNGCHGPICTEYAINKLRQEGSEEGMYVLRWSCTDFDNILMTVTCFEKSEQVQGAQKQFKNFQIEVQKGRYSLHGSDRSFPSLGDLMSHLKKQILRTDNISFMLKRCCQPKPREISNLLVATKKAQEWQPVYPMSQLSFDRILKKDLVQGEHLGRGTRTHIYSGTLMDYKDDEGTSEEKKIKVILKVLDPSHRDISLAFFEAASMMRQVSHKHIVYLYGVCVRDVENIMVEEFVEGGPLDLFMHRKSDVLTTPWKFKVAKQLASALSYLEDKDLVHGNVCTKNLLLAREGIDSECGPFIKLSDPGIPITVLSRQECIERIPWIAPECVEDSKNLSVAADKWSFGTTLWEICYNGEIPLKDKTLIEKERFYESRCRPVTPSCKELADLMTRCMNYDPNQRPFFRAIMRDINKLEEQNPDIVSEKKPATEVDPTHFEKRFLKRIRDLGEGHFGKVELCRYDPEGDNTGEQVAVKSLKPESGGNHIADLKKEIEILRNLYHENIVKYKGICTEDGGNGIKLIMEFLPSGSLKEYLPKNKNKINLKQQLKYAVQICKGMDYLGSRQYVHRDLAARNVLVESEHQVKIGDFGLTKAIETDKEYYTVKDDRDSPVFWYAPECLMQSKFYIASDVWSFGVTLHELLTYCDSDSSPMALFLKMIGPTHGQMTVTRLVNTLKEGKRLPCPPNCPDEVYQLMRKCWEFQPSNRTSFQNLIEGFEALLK
Sequence of JAK2 (O60674 whole entry): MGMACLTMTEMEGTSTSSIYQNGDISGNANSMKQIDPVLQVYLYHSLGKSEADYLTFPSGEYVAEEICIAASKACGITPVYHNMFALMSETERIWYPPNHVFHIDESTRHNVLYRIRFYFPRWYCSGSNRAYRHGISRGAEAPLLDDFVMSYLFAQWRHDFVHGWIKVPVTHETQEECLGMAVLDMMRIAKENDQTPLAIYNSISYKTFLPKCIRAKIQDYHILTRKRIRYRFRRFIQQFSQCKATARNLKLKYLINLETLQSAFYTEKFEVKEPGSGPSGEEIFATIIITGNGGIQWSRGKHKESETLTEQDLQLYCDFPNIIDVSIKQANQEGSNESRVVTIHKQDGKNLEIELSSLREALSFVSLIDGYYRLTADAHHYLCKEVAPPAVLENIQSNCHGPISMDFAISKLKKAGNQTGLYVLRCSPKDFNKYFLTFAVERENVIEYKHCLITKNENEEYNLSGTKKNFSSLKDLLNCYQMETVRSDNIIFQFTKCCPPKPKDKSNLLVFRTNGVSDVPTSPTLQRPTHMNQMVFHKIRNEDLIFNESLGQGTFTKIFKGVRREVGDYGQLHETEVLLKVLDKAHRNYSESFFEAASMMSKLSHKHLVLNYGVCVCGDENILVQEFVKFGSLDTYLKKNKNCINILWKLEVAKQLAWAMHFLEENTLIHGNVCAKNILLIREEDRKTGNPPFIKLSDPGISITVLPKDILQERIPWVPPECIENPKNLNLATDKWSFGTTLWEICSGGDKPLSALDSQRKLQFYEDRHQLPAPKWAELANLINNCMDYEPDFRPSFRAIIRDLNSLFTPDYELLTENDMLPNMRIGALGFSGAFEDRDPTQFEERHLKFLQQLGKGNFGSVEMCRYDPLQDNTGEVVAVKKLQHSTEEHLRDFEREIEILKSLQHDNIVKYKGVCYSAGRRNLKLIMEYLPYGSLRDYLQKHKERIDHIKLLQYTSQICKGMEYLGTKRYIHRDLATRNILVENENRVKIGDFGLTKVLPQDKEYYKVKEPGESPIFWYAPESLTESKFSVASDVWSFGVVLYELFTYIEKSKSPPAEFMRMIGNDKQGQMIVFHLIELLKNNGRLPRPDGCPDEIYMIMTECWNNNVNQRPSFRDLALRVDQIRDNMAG
Sequence of TYK2 (P29597 whole entry): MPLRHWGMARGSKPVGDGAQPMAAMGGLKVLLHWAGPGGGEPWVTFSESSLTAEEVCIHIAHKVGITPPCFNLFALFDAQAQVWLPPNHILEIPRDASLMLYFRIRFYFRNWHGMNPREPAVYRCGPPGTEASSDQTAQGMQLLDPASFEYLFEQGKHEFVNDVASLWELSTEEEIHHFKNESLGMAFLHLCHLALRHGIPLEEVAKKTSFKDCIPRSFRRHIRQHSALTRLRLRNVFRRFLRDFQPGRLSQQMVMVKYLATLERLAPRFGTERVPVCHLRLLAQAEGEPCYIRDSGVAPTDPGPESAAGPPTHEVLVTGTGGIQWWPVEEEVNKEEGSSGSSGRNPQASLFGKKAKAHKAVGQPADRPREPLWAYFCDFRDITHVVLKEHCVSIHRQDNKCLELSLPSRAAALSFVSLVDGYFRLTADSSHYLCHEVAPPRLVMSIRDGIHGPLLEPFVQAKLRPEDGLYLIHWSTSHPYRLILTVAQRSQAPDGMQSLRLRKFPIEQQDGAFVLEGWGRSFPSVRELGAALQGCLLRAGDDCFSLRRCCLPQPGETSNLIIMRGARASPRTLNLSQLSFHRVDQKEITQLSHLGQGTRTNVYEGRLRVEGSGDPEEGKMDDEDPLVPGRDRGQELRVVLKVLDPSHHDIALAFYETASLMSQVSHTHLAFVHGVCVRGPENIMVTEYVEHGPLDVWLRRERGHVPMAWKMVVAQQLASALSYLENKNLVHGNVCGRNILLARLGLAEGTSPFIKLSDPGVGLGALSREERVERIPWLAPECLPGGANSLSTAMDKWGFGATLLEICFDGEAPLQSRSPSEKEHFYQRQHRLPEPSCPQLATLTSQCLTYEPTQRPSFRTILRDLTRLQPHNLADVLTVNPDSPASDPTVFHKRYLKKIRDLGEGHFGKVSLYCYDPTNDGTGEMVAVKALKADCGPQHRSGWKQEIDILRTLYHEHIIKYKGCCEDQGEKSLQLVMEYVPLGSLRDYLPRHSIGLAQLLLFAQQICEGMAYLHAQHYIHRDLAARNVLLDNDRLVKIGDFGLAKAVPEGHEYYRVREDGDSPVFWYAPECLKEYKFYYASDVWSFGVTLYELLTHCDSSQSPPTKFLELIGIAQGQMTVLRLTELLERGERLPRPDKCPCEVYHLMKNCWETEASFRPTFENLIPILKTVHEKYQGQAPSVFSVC
Sequence of JAK3 (P52333 whole entry): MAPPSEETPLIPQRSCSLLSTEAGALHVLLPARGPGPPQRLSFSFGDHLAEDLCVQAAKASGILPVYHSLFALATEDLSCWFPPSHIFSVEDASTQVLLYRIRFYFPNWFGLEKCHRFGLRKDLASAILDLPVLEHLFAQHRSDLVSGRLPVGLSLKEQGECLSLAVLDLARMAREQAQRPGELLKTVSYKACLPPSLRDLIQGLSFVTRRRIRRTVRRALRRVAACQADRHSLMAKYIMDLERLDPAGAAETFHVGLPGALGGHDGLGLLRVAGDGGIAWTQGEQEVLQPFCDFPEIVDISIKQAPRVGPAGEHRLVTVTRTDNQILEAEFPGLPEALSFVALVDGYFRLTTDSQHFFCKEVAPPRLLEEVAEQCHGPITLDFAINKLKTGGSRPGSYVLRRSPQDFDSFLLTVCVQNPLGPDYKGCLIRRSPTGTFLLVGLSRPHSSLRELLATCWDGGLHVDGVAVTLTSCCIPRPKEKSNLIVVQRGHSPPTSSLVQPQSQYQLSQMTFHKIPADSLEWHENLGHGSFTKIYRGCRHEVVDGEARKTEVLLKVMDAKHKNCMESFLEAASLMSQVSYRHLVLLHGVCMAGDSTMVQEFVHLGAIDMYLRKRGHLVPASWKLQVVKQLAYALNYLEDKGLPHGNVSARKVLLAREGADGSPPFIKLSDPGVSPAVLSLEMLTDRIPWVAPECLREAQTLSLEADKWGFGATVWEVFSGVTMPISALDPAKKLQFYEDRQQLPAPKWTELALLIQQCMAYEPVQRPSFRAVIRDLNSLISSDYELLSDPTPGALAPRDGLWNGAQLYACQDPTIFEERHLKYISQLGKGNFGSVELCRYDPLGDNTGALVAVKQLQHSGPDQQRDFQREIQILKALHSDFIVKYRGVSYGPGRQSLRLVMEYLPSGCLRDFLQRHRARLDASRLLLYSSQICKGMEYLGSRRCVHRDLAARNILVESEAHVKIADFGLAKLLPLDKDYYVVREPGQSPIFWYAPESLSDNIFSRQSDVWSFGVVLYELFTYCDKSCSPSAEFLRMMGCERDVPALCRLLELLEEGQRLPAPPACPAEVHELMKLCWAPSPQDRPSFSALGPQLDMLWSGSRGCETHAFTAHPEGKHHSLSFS

On to `C[C@@H]1CCN(C(=O)CC#N)C[C@@H]1N(C)c1ncnc2[nH]ccc12` [Tofacitinib, reference compound], for which the “improvement of DAI score or disease severity (in words)” value in series [1] was “did not improve DAI score or disease severity”. Also, in [1] (5 mg/kg), the “improvement of DAI score (in words)” value was “did not show any improvement of DAI score”, the “mice that developed moderate colitis” value is 80% and the “mice that developed severe colitis” value was 40%. For the same compound, in [1] (10 mg/kg), the “improvement of DAI score (in words)” value is “showed improvement of DAI score”, the “recovery of colon length from DSS-induced colitis” value is reported as “recovered the colon length”, the “mice that developed moderate colitis” value is reported as 20% and the “mice that developed severe colitis with gross bleeding” value worked out at 10%.

As to `COCCOCc1cc(Nc2ncc(C)c(Nc3cccc(S(=O)(=O)NC(C)(C)C)c3)n2)ccc1OCCN1CCCC1` [MMT3-83], the pIC50 (as a rule, the IC50 on a negative log10 scale, so that one unit is a factor of ten) in series [2] was 5.69; in series [3], 6.19.

Regarding `N#CC[C@H](C1CCCC1)n1cc(-c2ncnc3[nH]ccc23)cn1` [Ruxolitinib], the negative-log IC50 (pIC50) in series [2] (Homo sapiens, 72 h) was 6.94; in [3] (Homo sapiens, 72 h) it was approximately 6.84.

With Deucravacitinib, the pIC50 in series [2] was approximately 3.46; in [3], 5.13.

Regarding `Cc1cnc(Nc2ccc(OCCO)cc2)nc1Nc1cccc(S(=O)(=O)NC(C)(C)C)c1` [MMT3-72-M2, N-(tert-butyl)-3-((2-((4-(2-hydroxyethoxy)phenyl)amino)-5-methylpyrimidin-4-yl)amino)benzenesulfonamide], the pIC50 in series [4] was 7.79; in series [2] (Homo sapiens, 72 h) it was 5.59; in series [7], 8.70; in series [8], 6.15; in series [3] (Homo sapiens, 72 h), 6.48; in series [9], 7.26. Moreover, the “detection in plasma, colon tissue and feces” value in [5] was “only detected in the colon tissues and the feces with low level in the plasma”. The maximum concentration (Cmax) (commonly the highest concentration seen after dosing) was more than 1500 ng/g in series [6] (female, C57BL/6, mouse, colon tissue and small intestinal tissues, oral 10 mg/kg MMT3-72, read-out: Cmax in colon tissue and small intestinal tissues); 8 ng/mL in series [6] (female, C57BL/6, mouse, plasma, oral 10 mg/kg MMT3-72, read-out: Cmax in plasma). The concentration at 24 h in series [6] (female, C57BL/6, mouse, small and large intestine tissues, oral 10 mg/kg MMT3-72, at 24 hrs, read-out: Cmin in small and large intestine tissues) stood at 88.5 ng/mL. The “concentration in colon content relative to small intestine content” value in series [6] (oral 10 mg/kg MMT3-72) came out at 10 fold. Moreover, the “time after which undetectable in plasma” value in [6] (oral 10 mg/kg MMT3-72) came to 4 h.

For the compound `CC[C@@H]1CN(C(=O)NCC(F)(F)F)C[C@@H]1c1cnc2cnc3[nH]ccc3n12` [Upadacitinib], the negative logarithm of the IC50 (pIC50) in [2] (Homo sapiens, 72 h) was 6.00; in series [3] (Homo sapiens, 72 h) it was 7.16.

With `Cc1cnc(Nc2ccc(OCCOc3ccc(/N=N/c4ccc(C(=O)NCCC(=O)O)cc4)cc3C(=O)O)cc2)nc1Nc1cccc(S(=O)(=O)NC(C)(C)C)c1` [MMT3-72, (E)-2-(2-(4-((4-((3-(N-(tert-butyl)sulfamoyl)phenyl)amino)-5-methylpyrimidin-2-yl)amino)phenoxy)ethoxy)-5-((4-((2-carboxyethyl)carbamoyl)phenyl)diazenyl)benzoic acid], the pIC50 in [4] is 6.35; in [2] (Homo sapiens, 72 h), 5.25; in series [7], 6.70; in series [8] it was 5.17; in [3] (Homo sapiens, 72 h), 6.29; in series [9], 5.53. The “detection in plasma, colon tissue and feces” value in [5] is “only detected in the feces with no detection in the plasma and the colon tissues”. For the same compound, the “improvement of DAI score or disease severity (in words)” value in [1] is recorded as “did not improve DAI score or disease severity”. In addition, the “improvement of DAI score versus DSS induced colitis” value in series [1] (5 mg/kg) was 5 fold. Besides, the “mice that developed moderate colitis” value in series [1] (5 mg/kg) is given as 10%; in series [1] (10 mg/kg), “no mice”. In addition, in series [1] (5 mg/kg), the “mice that developed severe colitis” value is “no mouse developed severe colitis”. Also, in series [1] (10 mg/kg), the “improvement of DAI score in DSS-induced colitis model” value worked out at 10 fold. The “recovery of colon length from DSS-induced colitis” value in series [1] (10 mg/kg) is “recovered the colon length”. Besides, the “mice that developed severe colitis with gross bleeding” value in [1] (10 mg/kg) is “no mice”. Moreover, in [6] (female, C57BL/6, mouse, GI content (stomach, small intestine and colon content), oral 10 mg/kg MMT3-72, read-out: Cmax in GI content (stomach, small intestine and colon content)), the Cmax was more than 50000 ng/g. In addition, in [6] (oral 10 mg/kg MMT3-72, 0-24 hrs), the “detection in small intestine tissues, colon tissue or systemic circulation” value was “not detected”. Besides, the “epithelial loss and immune cell infiltration in colon tissue (H&E)” value in series [10] is “reduced epithelium disruption and infiltration of immune cells in colon tissues”; in series [10] (listed as MMT3972) it was “reduced epithelial loss and decreased infiltration of immune cells”.

In turn, `Cc1cnc(Nc2ccc(OCCN3CCCC3)cc2)nc1Nc1cccc(S(=O)(=O)NC(C)(C)C)c1` [Fedratinib] gave a pIC50 in series [2] (Homo sapiens, 72 h) of 6.04. In addition, in [11], the “portion excreted in feces as unchanged drug” value was 23% and the “portion excreted to GI tract in feces” value is on record as 77%. Moreover, in series [3] (Homo sapiens, 72 h), the negative logarithm of the IC50 (pIC50) is 6.68.
